The source of these data is US20100151053A1, “SYSTEM AND METHOD FOR THE DELIVERY OF A SANITIZING FOAM” (GREEN SOURCE AUTOMATED, LLC, priority 2008, published 2010).

The data set can be described thus: volumes of gas dissolved in teat dip solution under pressure. The class given is physicochemical. Particulars: standard room temperature and 100 psi pressure; TeatKote 10/111 dip solution. An excerpt: When a vessel containing the dip solution is pressurized, the gas mixture pressure causes the gasses to dissolve into the dip and an amount of energy caused by the pressurization acts upon the system. The system is allowed to come to equilibrium and the temperature is controlled such that any temperature rise caused by this energy introduction is removed. Henry's law states: “the amount of any given gas that will dissolve in a liquid at a given temperature is a function of the partial pressure of the gas that is in contact with the liquid and the solubility coefficient of the gas in the particular liquid.” In other words, the amount of gas that can be dissolved into a liquid depends on the temperature, the pressure, and how well the particular liquid absorbs gases. With that being said, in order to make a consistent application of the preparation as a foam on the teats of a cow, a consistent pressure and temperature is beneficial. A recirculation loop from the pressurized tank to the nozzle and back to the tank can, for example, be employed to make sure the temperature and dissolved gas content remain consistent with that of the dip mixture in the tank in an embodiment of the invention.
In various embodiments of the invention, a pressure vessel is used to hold the dip solution and expose it to the propellant/diffused gas or gasses. […]

As to `[N-]=[N+]=O` [Example N2O, nitrous oxide], the “volumes dissolved, gas versus dip solution” value is on record as “approximately four”. Regarding `O=C=O` [CO2, Carbon dioxide], the “volumes dissolved, gas versus dip solution” value is “approximately 4.5 volumes”.
